Reference: PubChem BioAssay AID1963422 (Molecular Pharmacology Branch, DTP, NCI, 2024)
Several values for one entry are separate records, joined by “and”; a condition that tells them apart may be missing. Equal entries are not always repeated.

Test system: 463943-066-T-J2-PDC complex spheroid growth
Assay: Anticancer human tumor 463943-066-T-J2-PDC patient-derived colon adenocarcinoma cell line growth inhibition [Asc]
Settings: for viability, T/C: stronger effect = lower value
Procedure, shortened: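 Tumor cells were grown as multicellular spheroids with stromal HUVEC and mesenchymal stem cells and treated singly or in combination. Concentrations fell in half-log steps from the clinical Cmax, or from 10 microM where none was known.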

[1] = curve of first compound, second compound 0.0316 µM
[2] = curve of first compound, second compound 0.1 µM
[3] = curve of first compound, second compound 0.316 µM
[4] = curve of first compound, second compound 1 µM
[5] = second compound 0.0316 µM, first compound 0.00316 µM
[6] = second compound 0.0316 µM, first compound 0.01 µM
[7] = second compound 0.0316 µM, first compound 0.0316 µM
[8] = second compound 0.0316 µM, first compound 0.1 µM
[9] = second compound 0.1 µM, first compound 0.00316 µM
[10] = second compound 0.1 µM, first compound 0.01 µM
[11] = second compound 0.1 µM, first compound 0.0316 µM
[12] = second compound 0.1 µM, first compound 0.1 µM
[13] = second compound 0.316 µM, first compound 0.00316 µM
[14] = second compound 0.316 µM, first compound 0.01 µM
[15] = second compound 0.316 µM, first compound 0.0316 µM
[16] = second compound 0.316 µM, first compound 0.1 µM
[17] = second compound 1 µM, first compound 0.00316 µM
[18] = second compound 1 µM, first compound 0.01 µM
[19] = second compound 1 µM, first compound 0.0316 µM
[20] = second compound 1 µM, first compound 0.1 µM
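Further: compound exposure lasted 7 days.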
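Wherever viability, T/C is given: 100% = DMSO vehicle control wells.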

Cn1ncnc1[C@H]1c2n[nH]c(=O)c3cc(F)cc(c23)N[C@@H]1c1ccc(F)cc1 + CNC(C)C(=O)NC1CN(S(=O)(=O)c2cccc(S(=O)(=O)N3CCC4CCC(C(=O)NC(c5ccccc5)c5ccccc5)N4C(=O)C(NC(=O)C(C)NC)C3)c2)CCC2CCC(C(=O)NC(c3ccccc3)c3ccccc3)N2C1=O
IC50 (curve of first compound, second compound 0.00316 µM): > 0.1 µM | IC50 (curve of first compound, second compound 0.01 µM): > 0.1 µM | IC50 [1]: > 0.1 µM | IC50 [2]: > 0.1 µM | IC50 [3]: > 0.1 µM | IC50 [4]: > 0.1 µM | viability, T/C (second compound 0.00316 µM, first compound 0.000316 µM): 92.7% | viability, T/C (second compound 0.00316 µM, first compound 0.001 µM): 91.4% | viability, T/C (second compound 0.00316 µM, first compound 0.00316 µM): 94.3% | viability, T/C (second compound 0.00316 µM, first compound 0.01 µM): 94% | viability, T/C (second compound 0.00316 µM, first compound 0.0316 µM): 101% | viability, T/C (second compound 0.00316 µM, first compound 0.1 µM): 92.4% | viability, T/C (second compound 0.01 µM, first compound 0.000316 µM): 92.4% | viability, T/C (second compound 0.01 µM, first compound 0.001 µM): 89.9% | viability, T/C (second compound 0.01 µM, first compound 0.00316 µM): 94.3% | viability, T/C (second compound 0.01 µM, first compound 0.01 µM): 94.8% | viability, T/C (second compound 0.01 µM, first compound 0.0316 µM): 97.3% | viability, T/C (second compound 0.01 µM, first compound 0.1 µM): 87.2% | viability, T/C (second compound 0.0316 µM, first compound 0.000316 µM): 91.6% | viability, T/C (second compound 0.0316 µM, first compound 0.001 µM): 97.8% | viability, T/C [5]: 99.2% | viability, T/C [6]: 94% | viability, T/C [7]: 103% | viability, T/C [8]: 85.6% | viability, T/C (second compound 0.1 µM, first compound 0.000316 µM): 104% | viability, T/C (second compound 0.1 µM, first compound 0.001 µM): 93.9% | viability, T/C [9]: 100% | viability, T/C [10]: 91.9% | viability, T/C [11]: 105% | viability, T/C [12]: 93.9% | viability, T/C (second compound 0.316 µM, first compound 0.000316 µM): 98.3% | viability, T/C (second compound 0.316 µM, first compound 0.001 µM): 93% | viability, T/C [13]: 89.4% | viability, T/C [14]: 93% | viability, T/C [15]: 99.7% | viability, T/C [16]: 85.4% | viability, T/C (second compound 1 µM, first compound 0.000316 µM): 89.9% | viability, T/C (second compound 1 µM, first compound 0.001 µM): 86.8% | viability, T/C [17]: 84.2% | viability, T/C [18]: 87.5% | viability, T/C [19]: 80.8% | viability, T/C [20]: 83.2%

NC(=O)C(=Cn1cnc(-c2cc(C(F)(F)F)cc(C(F)(F)F)c2)n1)c1cncnc1
viability, T/C (compound 0.000949 µM): 96.5% and 87.3% and 115% | viability, T/C (compound 0.003 µM): 84.7% and 83.7% and 102% | viability, T/C (compound 0.00949 µM): 92.6% and 85.6% and 96.3% | viability, T/C (compound 0.03 µM): 87.8% and 84.8% and 87.7% | viability, T/C (compound 0.0949 µM): 83.6% and 81.3% and 79.4% | viability, T/C (compound 0.3 µM): 73.8% and 73.3% and 60.4% | IC50 (curve of compound): > 0.3 µM

COc1c(OCCCN2CCOCC2)ccc2c3n(c(=NC(=O)c4cnc(N)nc4)nc12)CCN3 + Cc1c(S(C)(=O)=O)c(-c2cc(F)cc(N3CCN(c4ccc(NS(=O)(=O)c5ccc(NC(CCN6CCC(C(=O)OCCCP(=O)(O)O)CC6)CSc6ccccc6)c(S(=O)(=O)C(F)(F)F)c5)cc4)CC3)c2)c(-c2ccc(Cl)cc2)n1C(C)C
IC50 [1]: 0.442 µM | IC50 [2]: 0.406 µM | IC50 [3]: 0.215 µM | IC50 [4]: 0.157 µM | IC50 (curve of first compound, second compound 3.16 µM): 0.027 µM | IC50 (curve of first compound, second compound 10 µM): < 0.00316 µM | viability, T/C [5]: 95.3% | viability, T/C [6]: 91.8% | viability, T/C [7]: 83.6% | viability, T/C [8]: 64.6% | viability, T/C (second compound 0.0316 µM, first compound 0.316 µM): 57.8% | viability, T/C (second compound 0.0316 µM, first compound 1 µM): 38.4% | viability, T/C [9]: 94.4% | viability, T/C [10]: 86% | viability, T/C [11]: 79.3% | viability, T/C [12]: 65.9% | viability, T/C (second compound 0.1 µM, first compound 0.316 µM): 55.7% | viability, T/C (second compound 0.1 µM, first compound 1 µM): 36.2% | viability, T/C [13]: 87.7% | viability, T/C [14]: 92.6% | viability, T/C [15]: 69% | viability, T/C [16]: 57.5% | viability, T/C (second compound 0.316 µM, first compound 0.316 µM): 49.7% | viability, T/C (second compound 0.316 µM, first compound 1 µM): 34.1% | viability, T/C [17]: 78.9% | viability, T/C [18]: 74.5% | viability, T/C [19]: 61.8% | viability, T/C [20]: 51.6% | viability, T/C (second compound 1 µM, first compound 0.316 µM): 49.5% | viability, T/C (second compound 1 µM, first compound 1 µM): 27.1% | viability, T/C (second compound 3.16 µM, first compound 0.00316 µM): 63.6% | viability, T/C (second compound 3.16 µM, first compound 0.01 µM): 58.8% | viability, T/C (second compound 3.16 µM, first compound 0.0316 µM): 46% | viability, T/C (second compound 3.16 µM, first compound 0.1 µM): 41% | viability, T/C (second compound 3.16 µM, first compound 0.316 µM): 33.6% | viability, T/C (second compound 3.16 µM, first compound 1 µM): 21.5% | viability, T/C (second compound 10 µM, first compound 0.00316 µM): 48.1% | viability, T/C (second compound 10 µM, first compound 0.01 µM): 44.7% | viability, T/C (second compound 10 µM, first compound 0.0316 µM): 41.2% | viability, T/C (second compound 10 µM, first compound 0.1 µM): 35.6% | viability, T/C (second compound 10 µM, first compound 0.316 µM): 35.6% | viability, T/C (second compound 10 µM, first compound 1 µM): 21.4%
